Measurements published in patent EP4455292A1, “A METHOD FOR DETECTING ECTOINE” (Kaunas University of Technology, priority 2023, dated 2024).

How the values were obtained:
[1] = system: ectoine-inducible system EutR/PeutB; experiment: E. coli-based ectoine biosensor (plasmid pEct-1), RFP reporter fluorescence response; assay type: cell-based
Experimental: (§1) The fluorescence and cell absorbance were measured at multiple time points. Freshly grown bacterial cells were used to inoculate 2 mL of MM containing appropriate antibiotics in 50-mL centrifuge tubes, and cell cultures were grown overnight at 200 rpm and 30 °C. To obtain logarithmically growing cells, E. coli and P. putida overnight cultures were diluted to 0.05 OD600, respectively, in 5 mL of fresh medium with antibiotic. After the cells were grown to an OD600 of 0.15-0.2, culture aliquots of 142.5 µL were transferred into flat and clear bottom black 96-well plate (Corning Incorporated) and 7.5 µL of ectoine or hydroxyectoine was added to each culture to the required final concentration. Absorbance and fluorescence of cultures were measured using an Infinite Nano+ microplate reader (Tecan). Multiple time point measurements were taken every 10 min over the course of 15-20 hours with a plate reader measuring RFP fluorescence at excitation and emission wavelengths set to 585 nm and 620 nm, respectively, and absorbance at 600 nm. Obtained fluorescence and absorbance values were corrected by subtracting the autofluorescence and absorbance of the culture medium. The absolute normalized fluorescence was determined dividing the fluorescence value by corresponding absorbance value.
The dose-response of biosensors was determined by using single time-point values of fluorescence and absorbance, which were obtained from the multiple time-point measurements 4 h after supplementation of ectoine or hydroxyectoine at different concentrations ranging from 0 to 5 mM. For all assays, the cultures of E. coli and P. putida were prepared as described above, and 142.5 µL of logarithmically growing cells, supplemented with 7.5 µL of ectoine or hydroxyectoine, were cultured in 96-well plate. The fluorescence and absorbance were measured using the same conditions and plate reader as indicated above.
The plasmid pEct-1 was used to characterize biosensor's response to exogenously added ectoine. Experiments were performed to determine the kinetics of induction establishing the time that is required for the system to respond to a change in the ectoine and the dose response of the system. To evaluate biosensor's response to the ectoine, the fluorescence output was quantified.
First, the time course experiments were performed in E. coli and P. putida. Accordingly, cells of both microorganisms harbouring the plasmid pEct-1, were cultivated in minimal medium (MM) at 200 rpm and 30° C (E. coli: Cm 50 mg/L; P. putida: Tet 12.5 mg/L), in the presence and absence of 1 mM ectoine; their optical density (OD600) and RFP fluorescence were monitored over time (Figure 3). In both microorganisms, the RFP expression above the level of the uninduced culture started with 60-90 minutes delay after addition of ectoine (Figure 3 and Figure 4) supporting the notion that the ectoine's catabolic product, the alpha-ADABA, as identified previously [Schultz et al (2017) Environ. Microbiol. 19(11), 4599-4619; Hermann et al (2021) Front. Microbiol. 12, 764731] is the effector that activates gene expression in P. putida. The fluorescence continued to increase throughout the course of 20-hour time course experiment. Importantly, the uninduced baseline (no ectoine) remained at 0 fluorescence units. […] Such "non-leaky" system helps improving the quantification accuracy of reporter fluorescence, but also can be used to control the gene expression that can be harmful or even toxic to a cell. […]

[2] = system: ectoine-inducible system EutR/PeutB; experiment: P. putida-based ectoine biosensor (plasmid pEct-1), RFP reporter fluorescence response; assay type: cell-based
Experimental: as §1
The dose-response of biosensors was determined by using single time-point values of fluorescence and absorbance, […] ranging from 0 to 5 mM. […] The fluorescence and absorbance were measured using the same conditions and plate reader as indicated above.
The plasmid pEct-1 was used to characterize biosensor's response to exogenously added ectoine. […] To evaluate biosensor's response to the ectoine, the fluorescence output was quantified.
First, the time course experiments were performed in E. coli and P. putida. […] The fluorescence continued to increase throughout the course of 20-hour time course experiment. Importantly, the uninduced baseline (no ectoine) remained at 0 fluorescence units. […]

AraC-PBAD = details: prior-art AraC-PBAD sensor, E. coli; cited from earlier work
[3] = E. coli, MM, 10 hours after supplementation, text does not separate the two hosts
[4] = MM, 10 hours after supplementation, text does not separate the two hosts

CC1=NC(C(=O)O)CCN1 (stereo not drawn) [ectoine, 1,4,5,6-tetrahydro-2-methyl-4-pyrimidinecarboxylic acid]
delay of RFP expression above the level of the uninduced culture after addition of ectoine ([1]; 1 mM ectoine, MM, 30° C, E. coli): 60 to 90 min
fold lower minimal ectoine concentration needed for observable induction (applicant's sensor vs AraC-PBAD sensor) ([1]; E. coli expression organism): around 1000 fold
limit of detection [1, 3]: below 1 µM
range of linear fluorescence response to exogenously present ectoine [1, 3]: 1 to 20 µM
minimal effective concentration ([1]; Escherichia coli, applicant's sensor, E. coli expression organism, read-out: minimal ectoine concentration needed for observable induction): 1 µM
delay of RFP expression above the level of the uninduced culture after addition of ectoine ([2]; 1 mM ectoine, 30° C): 60 to 90 min
limit of detection [2, 4]: below 1 µM
range of linear fluorescence response to exogenously present ectoine [2, 4]: 1 to 20 µM
minimal ectoine concentration needed for observable induction (AraC-PBAD): around 10 mM
